Experimental data: patent US7119073B2, “Peptides and their use as inhibitors of hepatitis C virus ns3 protease” (Istituto Di Ricerche Di Biologia Molecolare P. Angeletti SpA, priority 2001, dated 2006)
Where two headings read alike, the source gives them in different places. Where a SMILES comes first, the peptide text is derived from it. [ ]: non-standard residue; d: D form. The star is where a group is joined. Dip = N[C@H](C(=O)O)C(c1ccccc1)c1ccccc1; Abu(4,4-F2) = N[C@@H](CC(F)F)C(=O)O; Cha = N[C@@H](CC1CCCCC1)C(=O)O; X1 = O=C(O)c1ccc(CCN*)cc1

Legend:
[1] = molecular target: T1, NS3 protease domain complexed to a modified form of the NS4A peptide (Pep4AK) (Hepatitis C virus genotype 1b, UniProt P26663); assay: HCV NS3 protease domain/NS4A cofactor peptide assay (Assay B); assay type: biochemical
T1 construct: NS3 protease domain (residues 1027–1206 of the HCV polyprotein)
T1 sequence (P26663 1027-1206, other chains not shown): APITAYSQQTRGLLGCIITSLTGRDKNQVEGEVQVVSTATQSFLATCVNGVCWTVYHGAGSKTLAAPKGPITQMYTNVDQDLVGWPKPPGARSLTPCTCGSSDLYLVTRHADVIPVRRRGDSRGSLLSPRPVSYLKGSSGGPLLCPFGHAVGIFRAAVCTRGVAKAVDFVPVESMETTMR

[2] = molecular target: T2, full length NS3 protein noncovalently complexed with the full-length NS4A cofactor protein (NS3/NS4A complex) (Hepatitis C virus genotype 1b, UniProt P26663); assay: Full-length NS3-NS4A heterodimer protein assay (Assay A); assay type: biochemical, hepatitis C virus (HCV)
T2 construct: full length NS3 protein spanning residues 1027–1657 of the HCV polyprotein
T2 sequence (P26663 1027-1657): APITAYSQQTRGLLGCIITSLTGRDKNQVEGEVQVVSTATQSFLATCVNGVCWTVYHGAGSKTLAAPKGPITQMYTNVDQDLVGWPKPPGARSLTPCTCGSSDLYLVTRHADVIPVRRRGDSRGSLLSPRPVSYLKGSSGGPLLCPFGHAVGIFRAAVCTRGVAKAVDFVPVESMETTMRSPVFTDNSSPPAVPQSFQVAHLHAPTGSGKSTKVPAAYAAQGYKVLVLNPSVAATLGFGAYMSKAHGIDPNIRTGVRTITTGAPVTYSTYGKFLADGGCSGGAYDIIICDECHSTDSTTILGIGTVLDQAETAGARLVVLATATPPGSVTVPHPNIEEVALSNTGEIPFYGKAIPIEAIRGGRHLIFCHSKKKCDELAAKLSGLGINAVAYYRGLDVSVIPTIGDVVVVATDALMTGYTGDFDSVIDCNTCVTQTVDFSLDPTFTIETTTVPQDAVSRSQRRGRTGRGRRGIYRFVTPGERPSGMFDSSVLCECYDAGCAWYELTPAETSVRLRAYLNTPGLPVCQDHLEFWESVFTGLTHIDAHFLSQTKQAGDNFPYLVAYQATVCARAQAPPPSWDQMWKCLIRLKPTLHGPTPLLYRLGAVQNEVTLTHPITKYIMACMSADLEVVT
T2 sequence (P26663 1658-1711): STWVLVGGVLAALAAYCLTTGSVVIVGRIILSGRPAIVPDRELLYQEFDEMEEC
Description: Full-Length NS3-NS4A Heterodimer Protein Assay (Assay A)
(Gallinari, P., Paolini, C., Brennan, D., Nardi, C., Steinkühler, C. and De Francesco, R. Modulation of hepatitis C virus NS3 protease and helicase activities through the interaction with NS4A. Biochemistry 38, 5620–5632, 1999)
In this assay the full length NS3 protein spanning residues 1027–1657 of the HCV polyprotein, noncovalently complexed with the full-length NS4A cofactor protein (residues 1658–1711) was used. Assays were performed in 60 μl of a buffer containing 50 mM Hepes pH 7.5, 0.15 M NaCl, 0.1% (v/v) Triton X-100, 15% (v/v) glycerol, 10 mM DTT, 2 nM NS3/NS4A complex. To this assay mix 10 μM (final concentration) of a peptide substrate corresponding to the NS5AB cleavage site and having the sequence of the NS5A-NS5B peptide, were added. Incubation times at 23° C. were adjusted to obtain <10% conversion. Reactions were stopped by the addition of 40 μl of 1% TFA. Cleavage was determined by HPLC using a Merck-Hitachi chromatograph equipped with an autosampler. 80 μl samples were injected on a Lichrospher C18 reversed phase cartridge column (4×74 mm, 5 μm, Merck) and fragments were separated using a 10–40% acetonitrile gradient at 5%/min using a flow rate of 2.5 ml/min. Peak detection was done by monitoring both the absorbance at 220 nm and tryptophan fluorescence (λex=280 nm, λem=350 nm). Cleavage products were quantitated by integration of chromatograms with respect to appropriate standards. Kinetic parameters were calculated from nonlinear least-squares fit of initial rates as a function of substrate concentration with the help of a Kaleidagraph software, assuming Michaelis-Menten kinetics.
Ki values of peptide inhibitors were calculated from substrate titration experiments performed in the presence of increasing amounts of inhibitor. Experimental data sets were simultaneously fitted to eg.1 using a multicurve fit macro with the help of a Sigmaplot software: V=(VmaxS)/(Km([…])+S); (eq.1) Alternatively, Ki values were derived from IC50 values, calculated using a four-parameter logistic function, according to eq.2: IC50=(1+S/Km)Ki (eq.2)

[3] = Table 1, NS3 protease domain/Pep4AK, 4AB peptide substrate, read-out: Assay B
[4] = NS3 protease domain/NS4A cofactor peptide assay, read-out: Assay B (IC50 class)

## CC(C)COC(=O)NC(CCC(=O)O)C(=O)NC(CC(C)C)C(=O)NC(CC(F)F)C(=O)NCCc1ccc(C(=O)O)cc1Cl (centres unmarked) [Compound 180]
[1]; Assay B, Table 1, NS3 protease domain/Pep4AK, 4AB peptide substrate
  IC50: < 1 µM
[2]; Table 1, full-length NS3/NS4A, NS5A-NS5B peptide substrate, read-out: Assay A
  IC50: < 10 µM

## CC(C)COC(=O)N[C@@H](CCC(=O)O)C(=O)N[C@@H](CC(C)C)C(=O)N[C@@H](CS)C(=O)NCCc1ccc(C(=O)O)cc1Cl [Compound 178]
[1]; [3]
  IC50: < 1 µM
[2]
  IC50: < 10 µM

## CC(C)C[C@H](NC(=O)C1(Cc2ccsc2C(=O)O)Cc2ccccc2N1)C(=O)N[C@@H](CC(F)F)C(=O)NCCc1cccc(/C=C/C(=O)O)c1 (single isomer, unassigned) [Compound 706]
[1]; [4]
  IC50: < 10 µM
[2]
  IC50: < 100 µM

## CC(C)COC(=O)NC(CCC(=O)O)C(=O)NC(CC(C)C)C(=O)NC(CS)C(=O)NCCc1c(Cl)cccc1Cl (centres unmarked) [Compound 164]
[1]; [3]
  IC50: < 10 µM
[2]
  IC50: < 100 µM

## CC(C)COC(=O)NC(CCC(=O)O)C(=O)NC(CC(C)C)C(=O)NC(CS)C(=O)NCCc1ccc(CC(=O)O)cc1 (centres unmarked) [Compound 154]
[1]; [3]
  IC50: < 10 µM
[2]
  IC50: < 100 µM

## CC(C)COC(=O)NC(CCC(=O)O)C(=O)NC(CC(C)C)C(=O)NC(CS)C(=O)NCCc1ccc(C(=O)O)cc1 (centres unmarked) [Compound 151]
[1]; [3]
  IC50: < 10 µM
[2]
  IC50: < 100 µM

## CC(C)C[C@H](NC(=O)C1(Cc2ccsc2C(=O)O)Cc2ccccc2N1)C(=O)N[C@@H](CC(F)F)C(=O)NCCc1ccc(C(=O)O)cc1Cl (single isomer, unassigned) [Compound 705]
[1]; [4]
  IC50: < 10 µM
[2]
  IC50: < 100 µM

## COc1ccc(Br)cc1CCNC(=O)C(CS)NC(=O)C(CC(C)C)NC(=O)C(CCC(=O)O)NC(=O)OCC(C)C (centres unmarked) [Compound 173]
[1]; [3]
  IC50: < 10 µM
[2]
  IC50: < 100 µM

## CC(C)C[C@H](NC(=O)C1(Cc2ccc(C(=O)O)s2)CCc2ccccc2N1)C(=O)N[C@@H](CC(F)F)C(=O)NCCc1ccc(C(=O)O)cc1Cl (single isomer, unassigned) [Compound 711b]
[1]; [4]
  IC50: < 10 µM
[2]
  IC50: < 100 µM

## CC(C)COC(=O)NC(CCC(=O)O)C(=O)NC(CC(C)C)C(=O)NC(CS)C(=O)NCCc1ccc(CCC(=O)O)cc1 (centres unmarked) [Compound 156]
[1]; [3]
  IC50: < 10 µM
[2]
  IC50: < 100 µM

## CC(C)COC(=O)NC(CCC(=O)O)C(=O)NC(CC(C)C)C(=O)NC(CS)C(=O)NCCc1cccc(C(=O)O)c1 (centres unmarked) [Compound 133]
[1]; [3]
  IC50: < 10 µM
[2]
  IC50: < 100 µM

## CC(C)CC(NC(=O)C(CCC(=O)O)NC(=O)OC(C)(C)C)C(=O)NC(CC(F)F)C(=O)NCCc1ccccc1Cl (centres unmarked) [Compound 115]
[1]; [3]
  IC50: < 10 µM
[2]
  IC50: < 100 µM

## COC(=O)c1ccc(CCNC(=O)[C@H](CS)NC(=O)[C@H](CC(C)C)NC(=O)[C@H](CCC(=O)O)NC(=O)OCC(C)C)c(Cl)c1 [Compound 177]
[1]; [3]
  IC50: < 10 µM
[2]
  IC50: < 100 µM

## CC(C)C[C@H](NC(=O)[C@H](CCC(=O)O)NS(=O)(=O)c1cccc2ccccc12)C(=O)N[C@@H](CS)C(=O)NCCc1ccccc1Cl [Compound 252]
[1]; Assay B, Table 2, NS3 protease domain/Pep4AK
  IC50: < 10 µM
[2]
  IC50: < 10 µM

## CC(=O)N[C@@H](CC(=O)O)C(=O)N[C@@H](CCC(=O)O)C(=O)N[C@H](C(=O)N[C@@H](CCC(=O)O)C(=O)N[C@@H](CC1CCCCC1)C(=O)N[C@@H](CC(F)F)C(=O)NCCc1ccc(C(=O)O)cc1)C(c1ccccc1)c1ccccc1 [Compound 321] (Ac-DE[Dip]E[Cha][Abu(4,4-F2)]-X1)
[1]; Assay B, Table 3, NS3 protease domain/Pep4AK
  IC50: < 1 µM
[2]; Table 3, full-length NS3/NS4A, read-out: Assay A
  IC50: < 1 µM

## CC(C)C[C@H](NC(=O)C1(Cc2ccsc2C(=O)O)Cc2ccccc2N1)C(=O)N[C@@H](CC(F)F)C(=O)NCCc1c(F)cc(C(=O)O)cc1F (single isomer, unassigned) [Compound 708b]
[1]; [4]
  IC50: < 10 µM
[2]
  IC50: < 100 µM
